According to patent publication US7230020B2, “11β-hydroxysteroid dehydrogenase inhibitors” (priority 2003, dated 2007):

Target: T1, human hepatic microsomal 11β HSD1 (Homo sapiens, UniProt P28845)
T1 construct: human hepatic microsomes were obtained from XenoTech, product H0610/Lot 0210078; tissue XenoTech H0610/Lot 0210078; host or cells: human liver (hepatic microsomes)
Assay: not given
Format: biochemical
Settings: Lineweaver-Burke plot, 10 μg microsomal protein, 30 min at 37° C., Buffer 1 (FIG. 6); read-out: apparent Km for cortisone

T1 sequence (P28845 whole entry): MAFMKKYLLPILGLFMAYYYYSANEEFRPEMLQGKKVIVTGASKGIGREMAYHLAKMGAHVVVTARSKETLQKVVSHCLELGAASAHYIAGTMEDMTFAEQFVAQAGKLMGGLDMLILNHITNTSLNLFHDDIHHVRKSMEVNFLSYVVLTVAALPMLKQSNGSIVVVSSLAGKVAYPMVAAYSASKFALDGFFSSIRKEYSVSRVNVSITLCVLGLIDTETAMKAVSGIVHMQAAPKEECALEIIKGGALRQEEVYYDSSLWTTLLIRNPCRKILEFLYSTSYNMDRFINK

| SMILES | Km |
| --- | --- |
| C[C@]12CCC(=O)C=C1CC[C@@H]1[C@@H]2C(=O)C[C@@]2(C)[C@H]1CC[C@]2(O)C(=O)CO [cortisone, Cortisone] | 0.66 µM |

Target: T2, Human 11β HSD1 (Homo sapiens, UniProt P28845)
T2 construct: human hepatic microsomes were obtained from XenoTech, product H0610/Lot 0210078; tissue XenoTech H0610/Lot 0210078; host or cells: human liver (hepatic microsomes)
Assay: biochemical
Format: biochemical
Settings: Lineweaver-Burke plot, RIA detection, buffer 3, 10 μg/well microsomal protein, 30 min (FIG. 20); read-out: apparent Km
Description: Standard Operating Procedure for the 11β-Hydroxysteroid Dehydrogenase Type 1 cortisol Radioimmunoassay (11β HSD1 Cortisol RIA).
30 mM Tris-HCL, pH 7.2 containing 1 mM EDTA.
50 mM Tris-HCL, pH 8, containing 0.1 M NaCl and 0.1% gelatin.
Prepare 10 mM stock solutions in 100% DMSO at 100 times the required assay concentration. Dilute into assay buffer 1 in 25. Also dilute neat DMSO 1 in 25 into assay buffer for controls.
Dilute this 1 in 50 into assay buffer.
Prepare NADPH as a 1.8 mg/ml solution in assay buffer.
Mix these 3solutions 1:1:1 to make a solution of sufficient volume for 25 μl additions to each sample. Add 0.5 μCi tritiated cortisone per 25 μl and mix the solution well.
Dilute stock 20 mg/ml solution 1 in 100 with assay buffer.
Dilute stock antibody solution to 17 μg/ml in antibody binding buffer.
Make a 20 mg/ml solution in antibody binding buffer and chill on ice.
To a u-bottom polypropylene 96 well plate add: • 25 μl compound dilution or diluted DMSO to controls, NSB's and blanks • 10 μl 1 mM GA in DMSO (enzyme stop solution) to blanks • 25 μl substrate mixture to all samples • 50 μl diluted microsomes to all samples • Incubate plate for 30 min at 37° C. shaking p0 Add 10 μl enzyme stop solution to all wells except the blanks • Add 100 μl antibody solution to all wells except the NSB's, add antibody binding buffer to these wells • Incubate at 37° C. for 1 h • Chill plate on ice for 15 min • Add 50 μl/well charcoal solution and mix with an 8-channel pipette (4-5 aspirations) • Chill the plate on ice • Centrifuge at 4° C., 2000×g for 15 min • Transfer 100 μl supernatant into an Optiplate, also add 25 μl substrate mixture to 2 empty wells to indicate counting efficiency • Add 200 μl Microscint-40 to all wells and count on a Topcount Radioimmunoassay
The 11β HSD1 enzyme assay was carried out following the standard operating procedure described above in u-bottom polypropylene 96 well plates or 1.5 ml Eppendorf tubes as indicated for each experiment. Subsequent to stopping the enzyme reaction, 100 μl antibody prepared in buffer 3 unless otherwise indicated was added to test samples and 100 μl buffer 3 was added to the NSB samples. The samples were incubated for 1 hour at 37° C. and the chilled on ice for 15 mins. Dextran coated charcoal (50 μl/sample) prepared to the indicated concentration in buffer 3 was added and the samples were mixed (vortex for tubes and aspiration 5 times with an 8-channel pipette for 96 well plates) and chilled for a further 10 min. The samples were centrifuged at 2000×g for 15 min at 4° C. to pellet the charcoal. Aliquots of the supernatant (100 μl) were transferred to an Optiplate and counted on the Topcount in 150-200 μl Microscint 40. In some experiments, aliquots of supernatant were transferred to scintillation vials and counted on the Tricarb LSC in 5 ml Ultima Gold scintillant.

T2 sequence (P28845 whole entry): as above

| SMILES | Km |
| --- | --- |
| C[C@]12CCC(=O)C=C1CC[C@@H]1[C@@H]2C(=O)C[C@@]2(C)[C@H]1CC[C@]2(O)C(=O)CO [cortisone, Cortisone] | 0.7 µM |

Tested on: not given
Assay: not given
Settings: not given

| SMILES | melting point |
| --- | --- |
| CC1Nc2cc(NC(=O)c3ccc(-c4ccccc4)cc3)ccc2N1C (stereo not drawn) | 272 to 274 °C |
| CC1Nc2ccc(NC(=O)c3ccc(-c4ccccc4)cc3)cc2N1C (stereo not drawn) | 270 to 270.3 °C |
| Cc1cnc2cc(NS(=O)(=O)c3cccc(Cl)c3C)ccc2n1 | 163 to 164 °C |
| O=C(c1ccccc1)c1ccc(NC(=O)c2cc(Cl)ccc2Cl)cc1 | 150 to 153 °C |
| Cc1nc2cc(N(C)C(=O)c3ccc(Cl)cc3Cl)ccc2n1C | 245 to 247 °C |
| CC(=O)c1ccc(NC(=O)c2cc(Cl)cc(Cl)c2)cc1 | 199 to 200 °C |
| COc1cccc(C(=O)Nc2ccc(C(=O)c3ccccc3)cc2)c1 | 139 to 141 °C |
| O=C(NCCc1cccs1)c1ccc(-c2ccccc2)cc1 | 164 to 166 °C |
| O=C(Nc1ccc2c(c1)CCC2=O)c1cc(Cl)ccc1Cl | 218 to 221 °C |

Further lines, results first:

| melting point | SMILES |
| --- | --- |
| 147 to 148 °C | COc1cccc(CC(=O)Nc2ccc3sc(C)nc3c2Cl)c1 |
| 173 to 174 °C | COc1ccc(CC(=O)Nc2ccc3sc(C)nc3c2Cl)cc1 |
| 142 to 143 °C | COc1cccc(C(=O)Nc2ccc3c(c2)CCCC3=O)c1 |
| 174 to 176 °C | CCCc1ccc(C(=O)Nc2ccc(C(C)=O)cc2)cc1 |
| 252 to 253 °C | Cc1nc2c(Cl)c(NC(=O)c3cc(Cl)cc(Cl)c3)ccc2s1 |
| 175 °C | Cc1nc2c(Cl)c(NC(=O)c3cc(Cl)ccc3Cl)ccc2s1 |
| 275 to 277 °C | Cc1nc2cc(NC(=O)c3ccc(Cl)cc3Cl)ccc2n1C |
